Assay results as given in patent US5585105A, “Utilization of derivatives of 2,5-dihydroxyphenylcarboxylic acids, their homologs, and their salts in preparation of a cosmetic or dermatological composition with a depigmenting action” (L'Oreal, priority 1991, dated 1996).

Key:
[1] = tested on: fungal tyrosinase; test: in vitro tyrosinase activity inhibition test; format: biochemical; settings: decrease in maximum dopachrome formed (OD 475 nm, plateau) vs without inhibitor; inhibitor 50 mol. % relative to tyrosine; pH 6.5, 25° C.
Description: According to this test, the quantity of dopachrome formed during the chain of reactions by which tyrosine is converted into melanins is monitored by visible spectrometry at 475 nm. These reactions are catalyzed in vitro by fungal tyrosinase in the presence of a reducing cosubstrate (for example L-dopa in a small quantity) to initiate the hydroxylation reaction of L-tyrosine into L-dopa. The L-dopa is then oxidized catalytically into dopaquinone and then into dopachrome, an intermediate formed prior to the nonenzymatic oxidation reactions that lead to formation of melanins.
The inhibitor concentrations are established at 50 mol. % relative to the tyrosine concentration in the reaction medium.
The effect of inhibition is expressed by the decrease in the maximum quantity of dopachrome formed (optical density value at 475 nm read from the plateau of the curve) relative to the quantity obtained in the absence of inhibitor.
A--0.1 M phosphate buffer, pH=6.5 (Tween 20, 1%)
B--Stock solution of L-tyrosine, 2×10^-3 M in A
C--Stock solution of L-dopa, 10^-4 M in A
D--Stock solution of fungal tyrosinase, 2400 units/ml, in A
E--Stock solution of inhibitor, 10^-2 M in A (solutions C and D must be prepared on the day of the experiment).
reference cell: 3 ml of A
homogenize and equilibrate at 25° C.
mix rapidly and observe kinetics by measuring absorbance at 475 nm as a function of time.

[2] = tested on: melanocyte; settings: background statement; cited from earlier work

| SMILES | % change in maximum dopachrome vs no inhibitor [1] | irritation and cytotoxicity to the melanocyte [2] |
| --- | --- | --- |
| COC(=O)Cc1cc(O)c(C)cc1O | -87% | – |
| Cc1cc(O)c(CC(=O)O)cc1O | -66% | – |
| Cc1c(O)cc(CC(=O)O)c(O)c1C | -59% | – |
| Cc1cc(O)c(CCC(=O)O)cc1O | -64% | – |
| O=C(O)CCc1cc(O)ccc1O | -42% | – |
| Oc1ccc(O)cc1 [hydroquinone, reference compound] | -33% | particularly irritating and cytotoxic to the melanocyte |
